From patent US20260159536A1, “AKR1C3-ACTIVATED DNA ALKYLATING AGENT, AND MEDICAL APPLICATION THEREOF” (ASCENTAWITS PHARMACEUTICALS, LTD., priority 2021, published 2026)

Experiments:
Set-up in all cases: species or system BALB/c nude mice
[1] = tested on: human liver cancer LI6652; assay: In vivo pharmacodynamics, liver cancer LI6652 subcutaneous xenograft PDX model; conditions: for Relative tumor volume (x ± S) / T/C (%) / TGI (%) / Tumor volume (x ± S): 2 weeks off, 2 cycles
Description: The pharmacodynamic analysis of each group in liver cancer LI6652 model was performed on Day 31 after administration, and the results were shown in Table 12.

[2] = tested on: human lung cancer NCI-H460-Luc2 cells (intracranial); assay: In vivo pharmacodynamics, NCI-H460-Luc2 intracranial inoculation CDX model; conditions: for Bioluminescence Value (Day 11) / T/C (%) / TGI (%): i.v. QWx3, Day 11
Description: The experiment was divided into groups of test drug Paclitaxel 20 mg/kg group, Compound A 2 mg/kg, 4 mg/kg and 8 mg/kg groups and 10% ethanol+10% polyoxyethylene castor oil+80% glucose injection DSW (pH 7.42) vehicle control group (Vehicle group), with 6 mice per group. […] The positive drug Paclitaxel 20 mg/kg group was administered by intraperitoneal injection and administered once a week for 3 weeks.
The pharmacodynamic analysis of each group in the human NCI-H460-luc intracranial inoculation model was performed based on the measured bioluminescence values on day 11 after administration, and the results were shown in Table 14.

[3] = tested on: HuPrime model LU0884 human lung cancer; assay: In vivo pharmacodynamics, lung cancer LU0884 PDX model; conditions: for T/C (%) / TGI (%) / Relative tumor volume (x ± S) / Tumor volume (x ± S): QWx3, i.v., Day 28; for Relative tumor volume (x ± S) / Tumor volume (x ± S): mean ± standard error; for Tumor volume (x ± S): in mm³ (unit assumed)
[4] = 1.25 mg/kg i.p. QDx5, 2 days off, Day 28
[5] = 2.5 mg/kg i.p. QDx5, 2 days off, Day 28
[6] = 5 mg/kg i.p. QDx5, 2 days off, Day 28

O=[N+]([O-])c1ccc(C(OP(=O)(N2CC2)N2CC2)C(F)(F)F)cc1Oc1ccc(-c2ccc(F)cc2)c(F)c1 (racemic) [Compound A]
Relative tumor volume (x ± S) [1, 4]: 0.18 ± 0.07
T/C (%) [1, 4]: 1.23%
TGI (%) [1, 4]: 98.77%
Tumor volume (x ± S) [1, 4]: 24.72 ± 9.57
Tumor volume ([1]; 1.25 mg/kg i.p., Day 0): 126.30 mm^3
Tumor volume ([1]; 1.25 mg/kg i.p., Day 3): 184.11 mm^3
Tumor volume ([1]; 1.25 mg/kg i.p., Day 7): 194.19 mm^3
Tumor volume ([1]; 1.25 mg/kg i.p., Day 10): 135.63 mm^3
Tumor volume ([1]; 1.25 mg/kg i.p., Day 14): 51.98 mm^3
Tumor volume ([1]; 1.25 mg/kg i.p., Day 17): 28.94 mm^3
Tumor volume ([1]; 1.25 mg/kg i.p., Day 21): 29.42 mm^3
Tumor volume ([1]; 1.25 mg/kg i.p., Day 24): 28.38 mm^3
Tumor volume ([1]; 1.25 mg/kg i.p., Day 28): 24.72 mm^3
Tumor volume ([1]; 1.25 mg/kg i.p., Day 31): 18.12 mm^3
Relative tumor volume (x ± S) [1, 5]: 0.17 ± 0.10
T/C (%) [1, 5]: 1.16%
TGI (%) [1, 5]: 98.84%
Tumor volume (x ± S) [1, 5]: 18.28 ± 8.14
Tumor volume ([1]; 2.5 mg/kg i.p., Day 0): 126.29 mm^3
Tumor volume ([1]; 2.5 mg/kg i.p., Day 3): 179.46 mm^3
Tumor volume ([1]; 2.5 mg/kg i.p., Day 7): 189.33 mm^3
Tumor volume ([1]; 2.5 mg/kg i.p., Day 10): 145.19 mm^3
Tumor volume ([1]; 2.5 mg/kg i.p., Day 14): 43.64 mm^3
Tumor volume ([1]; 2.5 mg/kg i.p., Day 17): 29.90 mm^3
Tumor volume ([1]; 2.5 mg/kg i.p., Day 21): 21.49 mm^3
Tumor volume ([1]; 2.5 mg/kg i.p., Day 24): 17.91 mm^3
Tumor volume ([1]; 2.5 mg/kg i.p., Day 28): 18.28 mm^3
Tumor volume ([1]; 2.5 mg/kg i.p., Day 31): 5.56 mm^3
Relative tumor volume (x ± S) [1, 6]: 0.02 ± 0.02
T/C (%) [1, 6]: 0.14%
Tumor volume (x ± S) [1, 6]: 3.38 ± 3.38
Tumor volume ([1]; 5 mg/kg i.p., Day 0): 124.83 mm^3
Tumor volume ([1]; 5 mg/kg i.p., Day 3): 174.91 mm^3
Tumor volume ([1]; 5 mg/kg i.p., Day 7): 190.90 mm^3
Tumor volume ([1]; 5 mg/kg i.p., Day 10): 130.55 mm^3
Tumor volume ([1]; 5 mg/kg i.p., Day 14): 34.29 mm^3
Tumor volume ([1]; 5 mg/kg i.p., Day 17): 19.84 mm^3
Tumor volume ([1]; 5 mg/kg i.p., Day 21): 13.80 mm^3
Tumor volume ([1]; 5 mg/kg i.p., Day 24): 12.20 mm^3
Tumor volume ([1]; 5 mg/kg i.p., Day 28): 3.38 mm^3
Tumor volume ([1]; 5 mg/kg i.p., Day 31): 2.62 mm^3
relative tumor inhibition TGI (%) ([1]; 1.25, 2.5, 5 mg/kg i.p.): exceeding 98%
effect on body weight ([1]; 1.25, 2.5, 5 mg/kg, at least 28 days): no significant effect on the body weight
Bioluminescence Value (Day 11) ([2]; 2 mg/kg): 7.62 ± 2.10 ×10^5 photon/second
T/C (%) ([2]; 2 mg/kg): 0.24%
TGI (%) ([2]; 2 mg/kg): 99.80%
Bioluminescence Value (Day 11) ([2]; 4 mg/kg): 1.62 ± 0.30 ×10^5 photon/second
T/C (%) ([2]; 4 mg/kg): 0.05%
TGI (%) ([2]; 4 mg/kg): 100.03%
Bioluminescence Value (Day 11) ([2]; 8 mg/kg): 1.78 ± 0.42 ×10^5 photon/second
T/C (%) ([2]; 8 mg/kg): 0.06%
TGI (%) ([2]; 8 mg/kg): 100.03%
body weight change ([2]; 2, 4, 8 mg/kg i.v.): little change
T/C (%) ([3]; Compound A 2.5 mg/kg): 57.85%
TGI (%) ([3]; Compound A 2.5 mg/kg): 42.15%
Relative tumor volume (x ± S) ([3]; Compound A 2.5 mg/kg): 3.47 ± 0.56
Tumor volume (x ± S) ([3]; Compound A 2.5 mg/kg): 360.43 ± 44.42
T/C (%) ([3]; Compound A 5 mg/kg): 43.62%
TGI (%) ([3]; Compound A 5 mg/kg): 56.38%
Relative tumor volume (x ± S) ([3]; Compound A 5 mg/kg): 2.61 ± 0.94
Tumor volume (x ± S) ([3]; Compound A 5 mg/kg): 291.60 ± 103.85
T/C (%) ([3]; Compound A 10 mg/kg): 63.02%
TGI (%) ([3]; Compound A 10 mg/kg): 36.98%
Relative tumor volume (x ± S) ([3]; Compound A 10 mg/kg): 3.78 ± 1.19
Tumor volume (x ± S) ([3]; Compound A 10 mg/kg): 434.80 ± 160.03
Size of tumor volume ([3]; Group 4, Compound A 2.5 mg/kg, Day 0): 109.86 mm^3
